Data taken from PubChem BioAssay AID1963421 (Molecular Pharmacology Branch, DTP, NCI, 2024).

System: 519858-162-T-J1-PDC complex spheroid growth, % test/control
Test: Anticancer human tumor 519858-162-T-J1-PDC patient-derived colon adenocarcinoma cell line growth inhibition [Asc]
Settings: for IC50: curve of first compound; for viability, T/C: stronger effect = lower value; active = viability on the fitted dose curve at most 10% of control; inactive = the rest
Method in brief: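 Complex spheroids combining tumor cells with HUVEC endothelial cells and human MSCs, at 37 degrees C, 5% CO2; agents tested alone or combined, half-log dilutions from at or near clinical Cmax, or 10 microM if Cmax unknown.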

[1] = second compound 0.00316 µM, first compound 0.0316 µM
[2] = second compound 0.00316 µM, first compound 0.1 µM
[3] = second compound 0.00316 µM, first compound 0.316 µM
[4] = second compound 0.00316 µM, first compound 1 µM
[5] = second compound 0.00316 µM, first compound 3.16 µM
[6] = second compound 0.00316 µM, first compound 10 µM
[7] = second compound 0.01 µM, first compound 0.0316 µM
[8] = second compound 0.01 µM, first compound 0.1 µM
[9] = second compound 0.01 µM, first compound 0.316 µM
[10] = second compound 0.01 µM, first compound 1 µM
[11] = second compound 0.01 µM, first compound 3.16 µM
[12] = second compound 0.01 µM, first compound 10 µM
[13] = second compound 0.0316 µM, first compound 0.0316 µM
[14] = second compound 0.0316 µM, first compound 0.1 µM
[15] = second compound 0.0316 µM, first compound 0.316 µM
[16] = second compound 0.0316 µM, first compound 1 µM
[17] = second compound 0.0316 µM, first compound 3.16 µM
[18] = second compound 0.0316 µM, first compound 10 µM
[19] = second compound 0.1 µM, first compound 0.0316 µM
[20] = second compound 0.1 µM, first compound 0.1 µM
[21] = second compound 0.1 µM, first compound 0.316 µM
[22] = second compound 0.1 µM, first compound 1 µM
[23] = second compound 0.1 µM, first compound 3.16 µM
[24] = second compound 0.1 µM, first compound 10 µM
[25] = second compound 0.316 µM, first compound 0.0316 µM
[26] = second compound 0.316 µM, first compound 0.1 µM
[27] = second compound 0.316 µM, first compound 0.316 µM
[28] = second compound 0.316 µM, first compound 1 µM
[29] = second compound 0.316 µM, first compound 3.16 µM
[30] = second compound 0.316 µM, first compound 10 µM
[31] = second compound 1 µM, first compound 0.0316 µM
[32] = second compound 1 µM, first compound 0.1 µM
[33] = second compound 1 µM, first compound 0.316 µM
[34] = second compound 1 µM, first compound 1 µM
[35] = second compound 1 µM, first compound 3.16 µM
[36] = second compound 1 µM, first compound 10 µM
[37] = second compound 0.00316 µM, first compound 0.00949 µM
[38] = second compound 0.00316 µM, first compound 0.03 µM
[39] = second compound 0.00316 µM, first compound 0.0949 µM
[40] = second compound 0.00316 µM, first compound 0.3 µM
[41] = second compound 0.00316 µM, first compound 0.949 µM
[42] = second compound 0.00316 µM, first compound 3 µM
[43] = second compound 0.01 µM, first compound 0.00949 µM
[44] = second compound 0.01 µM, first compound 0.03 µM
[45] = second compound 0.01 µM, first compound 0.0949 µM
[46] = second compound 0.01 µM, first compound 0.3 µM
[47] = second compound 0.01 µM, first compound 0.949 µM
[48] = second compound 0.01 µM, first compound 3 µM
[49] = second compound 0.0316 µM, first compound 0.00949 µM
[50] = second compound 0.0316 µM, first compound 0.03 µM
[51] = second compound 0.0316 µM, first compound 0.0949 µM
[52] = second compound 0.0316 µM, first compound 0.3 µM
[53] = second compound 0.0316 µM, first compound 0.949 µM
[54] = second compound 0.0316 µM, first compound 3 µM
[55] = second compound 0.1 µM, first compound 0.00949 µM
[56] = second compound 0.1 µM, first compound 0.03 µM
[57] = second compound 0.1 µM, first compound 0.0949 µM
[58] = second compound 0.1 µM, first compound 0.3 µM
[59] = second compound 0.1 µM, first compound 0.949 µM
[60] = second compound 0.1 µM, first compound 3 µM
[61] = second compound 0.316 µM, first compound 0.00949 µM
[62] = second compound 0.316 µM, first compound 0.03 µM
[63] = second compound 0.316 µM, first compound 0.0949 µM
[64] = second compound 0.316 µM, first compound 0.3 µM
[65] = second compound 0.316 µM, first compound 0.949 µM
[66] = second compound 0.316 µM, first compound 3 µM
[67] = second compound 1 µM, first compound 0.00949 µM
[68] = second compound 1 µM, first compound 0.03 µM
[69] = second compound 1 µM, first compound 0.0949 µM
[70] = second compound 1 µM, first compound 0.3 µM
[71] = second compound 1 µM, first compound 0.949 µM
[72] = second compound 1 µM, first compound 3 µM
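Also: seven day drug exposure begun three days after spheroid seeding.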
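For viability, T/C in this document: 100% = DMSO vehicle wells and lower values mean less viable spheroid.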

C#Cc1c(F)ccc2cc(O)cc(-c3ncc4c(N5CC6CCC(C5)N6)nc(OCC56CCCN5CC(F)C6)nc4c3F)c12 (stereo not drawn) + CNC(C)C(=O)NC1CN(S(=O)(=O)c2cccc(S(=O)(=O)N3CCC4CCC(C(=O)NC(c5ccccc5)c5ccccc5)N4C(=O)C(NC(=O)C(C)NC)C3)c2)CCC2CCC(C(=O)NC(c3ccccc3)c3ccccc3)N2C1=O
inactive: viability, T/C [1] 138% | viability, T/C [2] 111% | viability, T/C [3] 99.4% | viability, T/C [4] 100% | viability, T/C [5] 82.1% | viability, T/C [6] 72.1% | viability, T/C [7] 97.8% | viability, T/C [8] 91.2% | viability, T/C [9] 93.6% | viability, T/C [10] 86.1% | viability, T/C [11] 81.2% | viability, T/C [12] 77.3% | viability, T/C [13] 96.5% | viability, T/C [14] 82.4% | viability, T/C [15] 86.3% | viability, T/C [16] 102% | viability, T/C [17] 75.2% | viability, T/C [18] 105% | viability, T/C [19] 123% | viability, T/C [20] 123% | viability, T/C [21] 117% | viability, T/C [22] 97.6% | viability, T/C [23] 88.1% | viability, T/C [24] 94.9% | viability, T/C [25] 78.8% | viability, T/C [26] 97.6% | viability, T/C [27] 111% | viability, T/C [28] 115% | viability, T/C [29] 87.8% | viability, T/C [30] 92.2% | viability, T/C [31] 86.5% | viability, T/C [32] 93.2% | viability, T/C [33] 92.2% | viability, T/C [34] 77.9% | viability, T/C [35] 112% | viability, T/C [36] 106%
> 10 µM: IC50 (second compound 0.00316 µM) | IC50 (second compound 0.01 µM) | IC50 (second compound 0.0316 µM) | IC50 (second compound 0.1 µM) | IC50 (second compound 0.316 µM) | IC50 (second compound 1 µM)

C=C(F)C(=O)N1CCN(c2nc(OCC3CCCN3C)nc3c2CCN(c2cccc4cccc(Cl)c24)C3)CC1CC#N (stereo not drawn) + CNC(C)C(=O)NC1CN(S(=O)(=O)c2cccc(S(=O)(=O)N3CCC4CCC(C(=O)NC(c5ccccc5)c5ccccc5)N4C(=O)C(NC(=O)C(C)NC)C3)c2)CCC2CCC(C(=O)NC(c3ccccc3)c3ccccc3)N2C1=O
> 10 µM: IC50 (second compound 0.00316 µM) | IC50 (second compound 0.01 µM) | IC50 (second compound 0.0316 µM) | IC50 (second compound 0.1 µM) | IC50 (second compound 0.316 µM) | IC50 (second compound 1 µM)
inactive: viability, T/C [1] 102% | viability, T/C [2] 86.8% | viability, T/C [3] 102% | viability, T/C [4] 92.7% | viability, T/C [5] 94.8% | viability, T/C [6] 113% | viability, T/C [7] 104% | viability, T/C [8] 83.7% | viability, T/C [9] 91.2% | viability, T/C [10] 82% | viability, T/C [11] 96.7% | viability, T/C [12] 108% | viability, T/C [13] 94.7% | viability, T/C [14] 83.7% | viability, T/C [15] 86.3% | viability, T/C [16] 93.4% | viability, T/C [17] 95.7% | viability, T/C [18] 107% | viability, T/C [19] 93.1% | viability, T/C [20] 91.2% | viability, T/C [21] 93.3% | viability, T/C [22] 89.2% | viability, T/C [23] 86.8% | viability, T/C [24] 116% | viability, T/C [25] 88.2% | viability, T/C [26] 96.9% | viability, T/C [27] 106% | viability, T/C [28] 92.9% | viability, T/C [29] 82.2% | viability, T/C [30] 107% | viability, T/C [31] 93.6% | viability, T/C [32] 101% | viability, T/C [33] 103% | viability, T/C [34] 92.6% | viability, T/C [35] 91.2% | viability, T/C [36] 112%

CCN1C(C(=O)NC23CCC(C(=O)O)(CC2)CC3)C(c2cccc(Cl)c2F)C2(C(=O)Nc3cc(Cl)ccc32)C12CCCCC2 (stereo not drawn) + CNC(C)C(=O)NC1CN(S(=O)(=O)c2cccc(S(=O)(=O)N3CCC4CCC(C(=O)NC(c5ccccc5)c5ccccc5)N4C(=O)C(NC(=O)C(C)NC)C3)c2)CCC2CCC(C(=O)NC(c3ccccc3)c3ccccc3)N2C1=O
> 3 µM: IC50 (second compound 0.00316 µM) | IC50 (second compound 0.01 µM) | IC50 (second compound 0.0316 µM) | IC50 (second compound 0.1 µM) | IC50 (second compound 0.316 µM) | IC50 (second compound 1 µM)
inactive: viability, T/C [37] 92% | viability, T/C [38] 118% | viability, T/C [39] 111% | viability, T/C [40] 83.8% | viability, T/C [41] 108% | viability, T/C [42] 65.8% | viability, T/C [43] 101% | viability, T/C [44] 106% | viability, T/C [45] 112% | viability, T/C [46] 80.1% | viability, T/C [47] 89.2% | viability, T/C [48] 82.6% | viability, T/C [49] 96.4% | viability, T/C [50] 73.9% | viability, T/C [51] 122% | viability, T/C [52] 94% | viability, T/C [53] 83.5% | viability, T/C [54] 82.1% | viability, T/C [55] 94.7% | viability, T/C [56] 73.8% | viability, T/C [57] 82.1% | viability, T/C [58] 93.2% | viability, T/C [59] 80.1% | viability, T/C [60] 89.6% | viability, T/C [61] 96% | viability, T/C [62] 115% | viability, T/C [63] 92.8% | viability, T/C [64] 79.6% | viability, T/C [65] 81.3% | viability, T/C [66] 105% | viability, T/C [67] 78.9% | viability, T/C [68] 84.7% | viability, T/C [69] 66.1% | viability, T/C [70] 112% | viability, T/C [71] 82.2% | viability, T/C [72] 83.1%

Cc1nc(N2CCC3(CC2)COC(C)C3N)c(CO)nc1Sc1ccnc(N)c1Cl (stereo not drawn) + CNC(C)C(=O)NC1CN(S(=O)(=O)c2cccc(S(=O)(=O)N3CCC4CCC(C(=O)NC(c5ccccc5)c5ccccc5)N4C(=O)C(NC(=O)C(C)NC)C3)c2)CCC2CCC(C(=O)NC(c3ccccc3)c3ccccc3)N2C1=O
> 3 µM: IC50 (second compound 0.00316 µM) | IC50 (second compound 0.01 µM) | IC50 (second compound 0.0316 µM) | IC50 (second compound 0.1 µM) | IC50 (second compound 0.316 µM) | IC50 (second compound 1 µM)
inactive: viability, T/C [37] 112% | viability, T/C [38] 91.2% | viability, T/C [39] 91.2% | viability, T/C [40] 62.1% | viability, T/C [41] 62.1% | viability, T/C [42] 71.1% | viability, T/C [43] 100% | viability, T/C [44] 120% | viability, T/C [45] 102% | viability, T/C [46] 68% | viability, T/C [47] 55.3% | viability, T/C [48] 61% | viability, T/C [49] 83.8% | viability, T/C [50] 91.4% | viability, T/C [51] 96.8% | viability, T/C [52] 81.5% | viability, T/C [53] 84.5% | viability, T/C [54] 60.8% | viability, T/C [55] 87.7% | viability, T/C [56] 84.5% | viability, T/C [57] 87.7% | viability, T/C [58] 72.6% | viability, T/C [59] 74.5% | viability, T/C [60] 64.8% | viability, T/C [61] 96.9% | viability, T/C [62] 85.3% | viability, T/C [63] 82.1% | viability, T/C [64] 71.4% | viability, T/C [65] 42.8% | viability, T/C [66] 64.2% | viability, T/C [67] 103% | viability, T/C [68] 80.8% | viability, T/C [69] 69.4% | viability, T/C [70] 74.5% | viability, T/C [71] 92.5% | viability, T/C [72] 75.7%
